# Assay results reported in EP0933027A1, “Methods and compositions for protecting animals and humans against attack and infestation by arthropod and helminth parasites” (American Cyanamid Company, priority 1998, dated 1999).
# Assays:
# [1] = test system: Pyrethroid-susceptible horn fly (Haematobia irritans); assay: Treated filter paper test against adult pyrethroid-susceptible horn fly; settings: corrected for control mortality
# Description: (§1) Test doses are expressed as µg of test substance per cm^2 of filter paper. • 1) Prepare solutions of test compound in acetone such that 800 or 1000 µL contains the amount necessary to obtain the desired dose rate. • 2) Pipette 800 or 1000 µL of test solution onto filter paper. • 3) Filter papers are dried under a fume hood. • 4) When dry, filter papers are placed in the petri dish tops. Dishes are generally held about 24 hours before test organism is added. • 5) Two- to five-day-old horn flies (pyrethroid-susceptible or -resistant) which have had two or more blood meals are used in the assay. Flies are collected into a small vial from the holding cage. Vials are then chilled in a freezer for about 4 minutes to immobilize the flies. Immobilized flies are then distributed to petri dish bottoms, 12 to 25 flies per dish, then dishes are closed and inverted. • 6) As soon as the flies become mobile (about 5 minutes), they are examined to detect any flies that are dead or injured. This number is subtracted from total number of flies in the dish. • 7) Petri dishes are held at room temperature and examined at the desired time intervals which might be 10 minutes to 6 hours. • 8) All dead flies are recorded at each examination time. […] 10) Percent mortality at any time period is calculated using the following formula: (Number of dead flies - number dead @ 5 min)/(Total number of flies - number dead @ 5 min)x 100 [formula] Percent mortality is then corrected for control mortality using Abbot's formula.
# [2] = test system: Pyrethroid-resistant horn fly (Haematobia irritans); assay: Treated filter paper test against adult pyrethroid-resistant horn fly; settings: corrected for control mortality
# Description: as §1
compound,measurement,setting,value
"F/C(=C\Cc1ccc(F)c(Oc2ccccc2)c1)C(c1ccc(Cl)cc1)C1CC1 (centres unmarked) [Compound 5, 1-[1-(p-Chlorophenyl)-2-fluoro-4-(4-fluoro-3-phenoxyphenyl)-2-butenyl]cyclopropane, (Z)-]",mortality at 0.156 µg/cm2,"[1]; dose 0.1560 µg/cm^2, 6 hours",0%
same,mortality at 0.3125 µg/cm2,"[1]; dose 0.3125 µg/cm^2, 6 hours",5%
same,mortality at 0.625 µg/cm2,"[1]; dose 0.625 µg/cm^2, 6 hours",27%
same,mortality at 1.25 µg/cm2,"[1]; dose 1.25 µg/cm^2, 6 hours",88%
same,mortality at 2.5 µg/cm2,"[1]; dose 2.50 µg/cm^2, 6 hours",98%
same,mortality at 5 µg/cm2,"[1]; dose 5.00 µg/cm^2, 6 hours",100%
same,mortality at 1.25 µg/cm2,"[2]; dose 1.25 µg/cm^2, 6 hours",0%
same,mortality at 2.5 µg/cm2,"[2]; dose 2.50 µg/cm^2, 6 hours",1%
same,mortality at 5 µg/cm2,"[2]; dose 5.00 µg/cm^2, 6 hours",7%
same,mortality at 10 µg/cm2,"[2]; dose 10.0 µg/cm^2, 6 hours",33%
same,mortality at 20 µg/cm2,"[2]; dose 20.0 µg/cm^2, 6 hours",93%
